Assay results as given in patent US7923465B2, “Cannabinoid receptor ligands, pharmaceutical compositions containing them, and process for their preparation” (priority 2005, dated 2011).
Like-named read-outs stand apart in the source and are kept apart here.

Legend:
CB1 [1] = target: T1, CB1 (Rattus norvegicus, UniProt P20272); assay: Rat CB1 receptor binding using brain membrane, [3H]SR141716A displacement (Protocol I); design: CB1 receptor present in a rat brain membrane preparation; from tissue; host or cells: rat brain membrane; inhibition: dose or concentration left out as unconfirmed; details: for inhibition: 1 h
hCB1 [2] = target: T2, hCB1 (Homo sapiens, UniProt P21554); assay: Antagonism of CB1 receptors expressed in CHO cells, cAMP assay against CP 55,940 (Protocol IX.1); type: cell-based; design: expressed in transfected cells; host or cells: CHO (h-CB1/CHO, G418-selected); details: at 10 uM, h-CB1/CHO cells, cAMP, vs 30 nM CP 55,940; read-out: hCB1 Antagonism
Experimental: (§1) IX. Assay for Determining Agonist and Antagonist Activity to CB1 and CB2 Receptors
1. Antagonism of CB1/CB2 Receptors Expressed in CHO Cells.
h-CB1/CHO or h-CB2/CHO cells were grown in HAM's F12 DMEM medium (Sigma) with 10% FBS (Hyclone), 1% penicillin-streptomycin solution and 400 μg/ml of G418 (Sigma). 5000 cells were seeded per well in a 96 well plate and incubated for 24 hours at 37° C. in 5% CO2. On the day of assay, cells were washed with warm Krebs buffer containing 0.1% fatty acid free (FAF) BSA (Sigma) and re-suspended in the same buffer containing 1 mM IBMX. […] At the end of incubation, cells were lysed using lysis reagent from the cAMP estimation kit and cAMP was quantitated by the chemiluminescence method described in the manufacturer's instructions (DiscoveRX). EC50 values were calculated from dose response curves by nonlinear regression analysis using PRISM software.

hCB1 [3] = target: T2, hCB1; assay: In vitro binding assay using hCB1-CHO membranes, [3H]-CP-55,940 displacement (Protocol II); design: expressed in transfected cells; host or cells: CHO (hCB1-CHO, generated in-house)
Method in brief: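 Incubated 1 h at 37° C, stopped by rapid vacuum filtration on PEI-precoated GF/B filters, bound radioactivity counted by liquid scintillation.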

CB1 [4] = target: T1, CB1; assay: GTPγS binding assay, CB1 functional assay in rat cerebellar membrane (Protocol VIII); type: biochemical; design: 10 μg rat cerebellum membrane; from tissue; host or cells: rat cerebellum membrane, prepared in-house
Method in brief: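 Rat cerebellar membranes (10 μg) incubated 1 h at 30 °C with 0.2 nM [35S]GTPγS, 50 μM GDP, and compound at 1 μM or 300 nM, alone or with 1 μM WIN 55,212-2, in Tris/MgCl2/EGTA/NaCl pH 7.4. Filter-bound radioactivity counted; percent stimulation calculated against basal specific binding (nonspecific defined by 10 μM GTPγS).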

hCB2 [5] = target: T3, hCB2 (Homo sapiens, UniProt P34972); assay: In vitro binding assay using hCB2-CHO membranes, [3H]-CP-55,940 displacement (Protocol IV); design: expressed in transfected cells; host or cells: CHO (hCB2-CHO, generated in-house); details: for % Displacement Protocol IV: hCB2-CHO membranes, [3H]-CP-55,940 displacement
Method in brief: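 Displacement of [3H]-CP-55,940 (0.75 nM) from membranes of CHO cells expressing human CB2 (25-50 μg) was measured in Tris-BSA buffer pH 7.4 with 5 mM MgCl2, 1 mM EDTA, 0.1% BSA, 1 h at 30 °C. Test compounds were at 300 nM final; nonspecific binding defined with 0.5 μM CP-55,940. Values are % displacement of specific binding.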

hCB2 [6] = target: T3, hCB2; assay: Agonism of CB2 receptors expressed in CHO cells, forskolin cAMP assay (Protocol IX.2); type: cell-based; design: expressed in transfected cells; host or cells: CHO (h-CB2/CHO, G418-selected)
Experimental: as §1
2. Agonism of CB1/CB2 Receptors Expressed in CHO Cells
h-CB1/CHO or h-CB2/CHO cells were grown in HAM's F12 DMEM medium (Sigma) with 10% FBS (Hyclone), 1% penicillin-streptomycin solution and 400 μg/ml of G418 (Sigma). 5000 cells were seeded per well in a 96 well plate and incubated for 24 hours at 37° C. in 5% CO2. On the day of assay, cells were washed with warm Krebs Buffer containing 0.1% fatty acid free (FAF) BSA (Sigma) and re-suspended in the same buffer containing 1 mM IBMX. Test compound or CP 55,940 as a reference compound (30 nM final concentration for CB1 testing and 10 μM of the same for CB2 testing) diluted in FFB+IBMX+Krebs buffer was added to the cells followed by forskolin addition (10 uM final concentration) and incubated for 30 minutes at room temperature. At the end of incubation, cells were lysed using lysis reagent from the cAMP estimation kit and cAMP was quantitated by chemiluminescence method described in the manufacturer's instructions (DiscoveRX). EC50 values were calculated from dose response curves by nonlinear regression analysis using PRISM software.

[7] = rat brain membrane, [3H]SR141716A displacement, read-out: % Displacement Protocol I
[8] = GTPγS binding over basal, rat cerebellar membrane, tested at 1 uM
[9] = GTPγS binding, tested at 1 uM in presence of 1 μM WIN 55,212-2
[10] = rat brain membrane, [3H]SR141716A displacement
[11] = read-out: % Displacement Protocol I, rat brain membrane, [3H]SR141716A displacement

T3 sequence (P34972 whole entry): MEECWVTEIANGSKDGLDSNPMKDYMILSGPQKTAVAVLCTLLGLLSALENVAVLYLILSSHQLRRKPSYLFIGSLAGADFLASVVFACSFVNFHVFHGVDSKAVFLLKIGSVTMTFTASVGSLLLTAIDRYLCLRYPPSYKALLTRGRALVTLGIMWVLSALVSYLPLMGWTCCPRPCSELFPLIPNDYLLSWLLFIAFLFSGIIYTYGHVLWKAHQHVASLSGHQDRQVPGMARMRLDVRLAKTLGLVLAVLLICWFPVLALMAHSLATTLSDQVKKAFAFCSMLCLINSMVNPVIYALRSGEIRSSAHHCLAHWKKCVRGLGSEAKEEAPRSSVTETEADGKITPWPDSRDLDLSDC
T2 sequence (P21554 whole entry): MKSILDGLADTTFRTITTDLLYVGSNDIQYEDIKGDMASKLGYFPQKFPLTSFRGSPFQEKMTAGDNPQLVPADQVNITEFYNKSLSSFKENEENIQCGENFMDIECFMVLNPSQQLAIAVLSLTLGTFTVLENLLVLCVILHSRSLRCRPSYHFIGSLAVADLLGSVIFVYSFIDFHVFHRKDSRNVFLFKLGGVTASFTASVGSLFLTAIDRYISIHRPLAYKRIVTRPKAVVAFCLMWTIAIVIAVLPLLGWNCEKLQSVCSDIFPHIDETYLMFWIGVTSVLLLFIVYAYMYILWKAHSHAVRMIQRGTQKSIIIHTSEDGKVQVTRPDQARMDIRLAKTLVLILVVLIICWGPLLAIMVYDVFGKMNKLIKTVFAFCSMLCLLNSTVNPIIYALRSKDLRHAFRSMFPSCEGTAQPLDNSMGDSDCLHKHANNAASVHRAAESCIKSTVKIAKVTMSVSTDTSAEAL
T1 sequence (P20272 whole entry): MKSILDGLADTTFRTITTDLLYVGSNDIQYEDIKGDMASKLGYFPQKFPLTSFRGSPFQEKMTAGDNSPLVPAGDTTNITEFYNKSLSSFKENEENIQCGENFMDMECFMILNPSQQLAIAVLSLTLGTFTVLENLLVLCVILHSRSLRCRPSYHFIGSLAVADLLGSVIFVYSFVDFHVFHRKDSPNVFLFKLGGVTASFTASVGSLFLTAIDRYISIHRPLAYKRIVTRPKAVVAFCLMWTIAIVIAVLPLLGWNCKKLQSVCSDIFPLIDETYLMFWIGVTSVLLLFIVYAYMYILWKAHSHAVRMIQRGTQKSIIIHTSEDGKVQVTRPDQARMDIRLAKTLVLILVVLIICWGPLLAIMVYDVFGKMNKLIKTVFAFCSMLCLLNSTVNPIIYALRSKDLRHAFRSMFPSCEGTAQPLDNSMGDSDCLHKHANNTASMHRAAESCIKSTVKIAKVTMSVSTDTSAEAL

O=C(NCc1ccc(F)cc1)c1nn(-c2ccc(Cl)cc2)c2c1C1CCC2C1 (stereo not drawn) [Example 226, N(3)-(4-Fluorobenzyl)-1-(4-chlorophenyl)-4,5,6,7-tetrahydro-1H-4,7-methano-indazole-3-carboxamide]
inhibition (CB1 [1]; [7]): 38.4% | melting point: 104 to 107 °C | inhibition at 10 µM (hCB1 [2]): 71%

CN(NC(=O)c1nn(-c2ccc(Cl)cc2Cl)c2c1C1CCC2c2ccccc21)c1ccc(Cl)cc1Cl (stereo not drawn) [Example 505, N(12)-{N′-[(2,4-Dichlorophenyl)-N′-methyl]amino}-10-(2,4-dichlorophenyl)-10,11-diazatetracyclo[6.5.2.0^2,7.0^9,13]pentadeca-2,4,6,9(13),11-pentaene-12-carboxamide]
% Displacement Protocol II (hCB1 [3]): 77.51% | Per Se % Stimulation (CB1 [4]; [8]): 15.6% | % Inhibition of WIN-55212-2 induced stimulation (CB1 [4]; [9]): 94.4% | % Displacement Protocol I (CB1 [1]; [10]): 90.6%

O=C(NN(c1ccccc1)c1ccccc1)c1nn(-c2ccc(Cl)cc2)c2c1C1CCC2C1 (stereo not drawn) [Example 236]
% Displacement Protocol II (hCB1 [3]): 55.25% | Per Se % Stimulation (CB1 [4]; [8]): 8.0% | % Inhibition of WIN-55212-2 induced stimulation (CB1 [4]; [9]): 83.0% | % Displacement Protocol I (CB1 [1]; [10]): 75.5%

CC(C)(C)c1ccc(NC(=O)c2nn(-c3ccc(Cl)cc3)c3c2C2CCC3C2)cc1 (stereo not drawn) [Example 219, N(3)-(4-tert-Butylphenyl)-1-(4-chlorophenyl)-4,5,6,7-tetrahydro-1H-4,7-methano-indazole-3-carboxamide]
inhibition (CB1 [1]; [7]): 33.7% | melting point: 76 to 78 °C | inhibition at 10 µM (hCB1 [2]): 33.4%

O=C(NC1CCCCC1)c1nn(-c2ccccc2Cl)c2c1C1CC3CC(C1)CC2C3 [Example 183, N(7)-cyclohexyl-5-(2-chlorophenyl)-5,6-diazatetracyclo[7.3.1.1^3,11.0^4,8]tetradeca-4(8)-6-diene-7-carboxamide]
% Displacement Protocol II (hCB1 [3]): 17.24% | Per Se % Stimulation (CB1 [4]; [8]): 13.0% | % Inhibition of WIN-55212-2 induced stimulation (CB1 [4]; [9]): 72.5% | % Displacement Protocol I (CB1 [1]; [10]): 45.9% | % Displacement Protocol IV (hCB2 [5]): 18.23%

O=C(NN1CCCCC1)c1nn(-c2ccccc2Cl)c2c1C1CC3CC(C1)CC2C3 [Example 184, N(7)-piperidino-5-(2′-chlorophenyl)-5,6-diazatetracyclo[7.3.1.1^3,11.0^4,8]tetradeca-4(8)-6-diene-7-carboxamide]
% Displacement Protocol II (hCB1 [3]): 3.24% | Per Se % Stimulation (CB1 [4]; [8]): 9.5% | % Inhibition of WIN-55212-2 induced stimulation (CB1 [4]; [9]): 75.9% | % Displacement Protocol I (CB1 [1]; [10]): 41% | % Displacement Protocol IV (hCB2 [5]): 8.76%

O=C(NNc1ccc(F)cc1F)c1nn(-c2ccc(Cl)cc2)c2c1C1CCC2C1 (stereo not drawn) [Example 235, N(3)-[(2,4-Difluorophenyl)amino]-1-(4-chlorophenyl)-4,5,6,7-tetrahydro-1H-4,7-methano-indazole-3-carboxamide]
inhibition (CB1 [1]; [7]): 46.8% | melting point: 118 to 120 °C | inhibition at 10 µM (hCB1 [2]): 59.9%

O=C(NCc1ccccc1)c1nn(-c2ccccc2)c2c1C1CC3CC(C1)CC2C3 [Example 170, N(7)-Benzyl-5-phenyl-5,6-diazatetracyclo[7.3.1.1^3,11.0^4,8]tetradeca-4(8)-6-diene-7-carboxamide]
% Displacement Protocol II (hCB1 [3]): 29.49% | Per Se % Stimulation (CB1 [4]; [8]): 17.5% | % Inhibition of WIN-55212-2 induced stimulation (CB1 [4]; [9]): 80.3% | % Displacement Protocol I (CB1 [1]; [10]): 40.0% | % Displacement Protocol IV (hCB2 [5]): 27.16%

O=C(NC1CCCCC1)c1nn(-c2ccc(Cl)cc2)c2c1C1CC3CC(C1)CC2C3 [Example 106, N(7)-Cyclohexyl-5-(4-chlorophenyl)-5,6-diazatetracyclo[7.3.1.1^3,11.0^4,8]tetradeca-4(8),6-diene-7-carboxamide]
activation at 1 µM (CB1 [4]; 1 h, GTPγS binding over basal, rat cerebellar membrane, tested at 1 uM, read-out: Per Se % Stimulation): -10% | inhibition at 1 µM (CB1 [4]; GTPγS binding, tested at 1 uM in presence of 1 μM WIN 55,212-2, read-out: % Inhibition of WIN-55212-2 induced stimulation): 65.3% | inhibition (CB1 [1]; [11]): 78.6% | hCB2 Agonism (hCB2 [6]; concentration not given): 0% | melting point: 162 °C | inhibition at 0.3 µM (hCB2 [5]; 1 h, read-out: % Displacement Protocol IV): 75.1%

C[C@H](NC(=O)c1nn(-c2ccc(Cl)cc2Cl)c2c1C1CCC2C1)c1ccccc1 (stereo partly drawn) [Example 252, N(3)-[S-(1-phenylethyl)]-1-(2,4-dichlorophenyl)-4,5,6,7-tetrahydro-1H-4,7-methano-indazole-3-carboxamide]
% Displacement Protocol II (hCB1 [3]): 74.52% | Per Se % Stimulation (CB1 [4]; GTPγS binding over basal, rat cerebellar membrane, tested at 300 nM): 48.2% | % Inhibition of WIN-55212-2 induced stimulation (CB1 [4]; GTPγS binding, tested at 300 nM in presence of 1 μM WIN 55,212-2): 58.8% | % Displacement Protocol I (CB1 [1]; [10]): 99.8%

O=C(NCc1ccccc1)c1nn(-c2ccc(Cl)cc2Cl)c2c1C1CC3CC(C1)CC2C3 [Example 179, N(7)-Benzyl-5-(2′,4′-dichlorophenyl)-5,6-diazatetracyclo[7.3.1.1^3,11.0^4,8]tetradeca-4(8)-6-diene-7-carboxamide]
% Displacement Protocol II (hCB1 [3]): 30.88% | Per Se % Stimulation (CB1 [4]; [8]): 7.8% | % Inhibition of WIN-55212-2 induced stimulation (CB1 [4]; [9]): 89.7% | % Displacement Protocol I (CB1 [1]; [10]): 48% | % Displacement Protocol IV (hCB2 [5]): 18.21%

Cl.O=C(NNc1ccccc1)c1nn(-c2ccc(Cl)cc2)c2c1C1CC3CC(C1)CC2C3 [Example 122, N(7)-(N′-phenylamino)-5-(4-chlorophenyl)-5,6-diazatetracyclo[7.3.1.1^3,11.0^4,8]tetradeca-4(8),6-diene-7-carboxamide hydrochloride]
Per Se % Stimulation (CB1 [4]; [8]): 1.2% | % Inhibition of WIN-55212-2 induced stimulation (CB1 [4]; [9]): 59.3% | inhibition (CB1 [1]; [11]): 66.4% | inhibition at 10 µM (hCB1 [2]): 40.7%

CC(C)(C)NC(=O)c1nn(-c2ccc(F)cc2F)c2c1C1CCC2(C)C1(C)C (stereo not drawn) [Example 408, N(3)-tert-Butyl-1-(2,4-difluorophenyl)-7,8,8-trim ethyl-4,5,6,7-tetrahydro-1H-methano-indazole-3-carboxamide]
% Displacement Protocol II (hCB1 [3]): 24.93% | IC50 (hCB2 [6]; h-CB2/CHO cells, cAMP, read-out: hCB2 Agonism IC50): 0.0161 µM | % Displacement Protocol IV (hCB2 [5]): 61.92%
